Results as given in paper PMC7468108 (Communications Biology, 2020).

Key:
[1] = target: T1, hIAPP (Homo sapiens, UniProt P10997); test: CD spectroscopy of hIAPP aggregated with the tested molecules; settings: increasing doses up to 5-fold molar excess
T1 construct: hIAPP is a 37-amino acid neuroendocrine peptide hormone; purchased Peptide 2.0 (USA)
T1 sequence (P10997 34-70 limits assumed): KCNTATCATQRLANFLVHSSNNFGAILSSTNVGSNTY
Procedure: CD analysis was performed also for hIAPP (Fig. 2f and Supplementary Fig. 5). […] With different degrees of effectiveness, the presence of all tested hybrid molecules caused a reduction of the intensity of the CD signal, indicating an overall lower of β-sheet content of hIAPP (Fig. 2f and Supplementary Fig. 5).
(§1) The blank was subtracted from the acquired CD spectra. For the CD study in the presence of the tryptophan-galacosylamine molecules, the spectra of hybrid molecules were also recorded separately and subtracted from the respective sample spectra. The normalized data were plotted using Origin pro 2015 software.

[2] = target: T2, pre-formed fibrils of Aβ42 (Homo sapiens, UniProt P05067); test: CD spectroscopy of pre-formed Aβ42 fibrils with the tested molecules; settings: Aβ42 (10 µM) : molecule 1:5
T2 construct: purchased rPeptide (USA)
T2 sequence (P05067 672-713 limits assumed): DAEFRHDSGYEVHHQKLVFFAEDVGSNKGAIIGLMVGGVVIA
Procedure: For efficient treatment of proteinopathies it may be advantageous to disassemble amyloid aggregates/fibrils which are usually already present at the time of diagnosis[75]–[77]. […] Then, various doses of the hybrid molecules were added to the pre-formed fibrils and the mixtures were incubated for additional 10 h. The process of disaggregation was monitored by ThT-binding assay, CD spectroscopy, TEM and Congo red staining (Fig. 5).
as §1

Compound: NC(Cc1c[nH]c2ccccc12)C(=O)NC(Cc1c[nH]c2ccccc12)C(=O)O (centres unmarked) [WW]
- effect on hIAPP secondary structure (CD), in words [1]: substantial effect
- Normalized CD spectra ([2]; wave length 190.00): -73553.54
- Normalized CD spectra ([2]; wave length 190.50): -15766.44
- Normalized CD spectra ([2]; wave length 191.00): 35958.05
- Normalized CD spectra ([2]; wave length 191.50): 81619.94
- Normalized CD spectra ([2]; wave length 192.00): 121219.23
- Normalized CD spectra ([2]; wave length 192.50): 154755.92
- Normalized CD spectra ([2]; wave length 193.00): 182230.00
- Normalized CD spectra ([2]; wave length 193.50): 203641.48
- Normalized CD spectra ([2]; wave length 194.00): 218990.36
- Normalized CD spectra ([2]; wave length 194.50): 228276.63
- Normalized CD spectra ([2]; wave length 195.00): 231500.30
- Normalized CD spectra ([2]; wave length 195.50): 225800.71
- Normalized CD spectra ([2]; wave length 196.00): 212602.53
- Normalized CD spectra ([2]; wave length 196.50): 192673.83
- Normalized CD spectra ([2]; wave length 197.00): 167389.33
- Normalized CD spectra ([2]; wave length 197.50): 138095.62
- Normalized CD spectra ([2]; wave length 198.00): 105620.63
- Normalized CD spectra ([2]; wave length 198.50): 71268.15
- Normalized CD spectra ([2]; wave length 199.00): 34612.79
- Normalized CD spectra ([2]; wave length 199.50): -3059.42
- Normalized CD spectra ([2]; wave length 200.00): -41012.41
- Normalized CD spectra ([2]; wave length 200.50): -77900.86
- Normalized CD spectra ([2]; wave length 201.00): -113482.60
- Normalized CD spectra ([2]; wave length 201.50): -149046.90
- Normalized CD spectra ([2]; wave length 202.00): -184972.48
- Normalized CD spectra ([2]; wave length 202.50): -219485.50
- Normalized CD spectra ([2]; wave length 203.00): -252839.40
- Normalized CD spectra ([2]; wave length 203.50): -284772.39
- Normalized CD spectra ([2]; wave length 204.00): -314917.56
- Normalized CD spectra ([2]; wave length 204.50): -342821.04
- Normalized CD spectra ([2]; wave length 205.00): -369216.74
- Normalized CD spectra ([2]; wave length 205.50): -393550.37
- Normalized CD spectra ([2]; wave length 206.00): -417348.83
- Normalized CD spectra ([2]; wave length 206.50): -438915.06
- Normalized CD spectra ([2]; wave length 207.00): -457557.09
- Normalized CD spectra ([2]; wave length 207.50): -473195.60
- Normalized CD spectra ([2]; wave length 208.00): -486009.60
- Normalized CD spectra ([2]; wave length 208.50): -496658.21
- Normalized CD spectra ([2]; wave length 209.00): -506978.42
- Normalized CD spectra ([2]; wave length 209.50): -515749.12
- Normalized CD spectra ([2]; wave length 210.00): -522740.26
- Normalized CD spectra ([2]; wave length 210.50): -528398.60
- Normalized CD spectra ([2]; wave length 211.00): -534227.02
- Normalized CD spectra ([2]; wave length 211.50): -539337.45
- Normalized CD spectra ([2]; wave length 212.00): -544717.07
- Normalized CD spectra ([2]; wave length 212.50): -549064.94
- Normalized CD spectra ([2]; wave length 213.00): -552893.06
- Normalized CD spectra ([2]; wave length 232.00): -158822.48
- Normalized CD spectra ([2]; wave length 232.50): -145896.86
- Normalized CD spectra ([2]; wave length 233.00): -133288.90
- Normalized CD spectra ([2]; wave length 233.50): -121276.73
- Normalized CD spectra ([2]; wave length 234.00): -108420.01
- Normalized CD spectra ([2]; wave length 234.50): -94402.20
- Normalized CD spectra ([2]; wave length 235.00): -80851.94
- Normalized CD spectra ([2]; wave length 235.50): -67553.80
- Normalized CD spectra ([2]; wave length 236.00): -53046.10
- Normalized CD spectra ([2]; wave length 236.50): -38359.94
- Normalized CD spectra ([2]; wave length 237.00): -24169.94
- Normalized CD spectra ([2]; wave length 237.50): -9295.33
- Normalized CD spectra ([2]; wave length 238.00): 4979.26
- Normalized CD spectra ([2]; wave length 238.50): 18805.26
- Normalized CD spectra ([2]; wave length 239.00): 32522.94
- Normalized CD spectra ([2]; wave length 239.50): 44912.46
- Normalized CD spectra ([2]; wave length 240.00): 56635.42
- Normalized CD spectra ([2]; wave length 240.50): 67013.51
- Normalized CD spectra ([2]; wave length 241.00): 74841.22
- Normalized CD spectra ([2]; wave length 241.50): 81258.78
- Normalized CD spectra ([2]; wave length 242.00): 86276.81
- Normalized CD spectra ([2]; wave length 242.50): 90384.02
- Normalized CD spectra ([2]; wave length 243.00): 92798.03
- Normalized CD spectra ([2]; wave length 243.50): 93594.35
- Normalized CD spectra ([2]; wave length 244.00): 93999.17
- Normalized CD spectra ([2]; wave length 244.50): 92992.13
- Normalized CD spectra ([2]; wave length 245.00): 90422.16
- Normalized CD spectra ([2]; wave length 245.50): 86663.60
- Normalized CD spectra ([2]; wave length 246.00): 82929.71
- Normalized CD spectra ([2]; wave length 246.50): 77838.15
- Normalized CD spectra ([2]; wave length 247.00): 72115.03
- Normalized CD spectra ([2]; wave length 247.50): 67454.01
- Normalized CD spectra ([2]; wave length 248.00): 62170.09
- Normalized CD spectra ([2]; wave length 248.50): 58159.55
- Normalized CD spectra ([2]; wave length 249.00): 54507.86
- Normalized CD spectra ([2]; wave length 249.50): 50774.14
- Normalized CD spectra ([2]; wave length 250.00): 48265.73
- Normalized CD spectra ([2]; wave length 250.50): 46578.32
- Normalized CD spectra ([2]; wave length 251.00): 45531.49
- Normalized CD spectra ([2]; wave length 251.50): 45968.11
- Normalized CD spectra ([2]; wave length 252.00): 46977.38
- Normalized CD spectra ([2]; wave length 252.50): 48862.26
- Normalized CD spectra ([2]; wave length 253.00): 50826.53
- Normalized CD spectra ([2]; wave length 253.50): 52698.23
- Normalized CD spectra ([2]; wave length 254.00): 54591.66
- Normalized CD spectra ([2]; wave length 254.50): 55574.45
- Normalized CD spectra ([2]; wave length 255.00): 55730.02
- Normalized CD spectra ([2]; wave length 255.50): 53034.53
- Normalized CD spectra ([2]; wave length 256.00): 49400.95
- Normalized CD spectra ([2]; wave length 256.50): 44829.26
- Normalized CD spectra ([2]; wave length 257.00): 39319.47
- Normalized CD spectra ([2]; wave length 257.50): 32871.59
- Normalized CD spectra ([2]; wave length 258.00): 25485.60
